Assay results: paper PMC6008465 (British Journal of Cancer, 2018)
Marks after values point to notes of the source that are not given here.

Assays:
[1] = Part B pharmacokinetics by BRAF genotype; type: in vivo, human; conditions: Part B dose-expansion, by dose and genotype
Description: (§1) In Part A, blood was collected on Cycle 1, Days 1 and 15 at specified intervals prior to, during, and postinfusion (5 min–8 h), and on Days 2, 3, 16, and 17 (24 and 48 h postinfusion). Urine was collected on Cycle 1, Day 1 preinfusion, at 0–8 h, and 8–24 h. In Part B, blood was collected on Cycle 1, Day 1, prior to, during, and at 1–24 h postinfusion. Pharmacokinetic parameters were calculated using noncompartmental analysis.

[2] = Part A pharmacokinetics (plasma and urine, noncompartmental analysis); type: in vivo, human
Description: as §1

[3] = Cycle 1 Day 1, 160 mg/m^2 (n=3)
[4] = Cycle 1 Day 1, 320 mg/m^2 (n=7)
[5] = Cycle 1 Day 1, 400 mg/m^2 (n=1)
[6] = Cycle 1 Day 1, 480 mg/m^2 (n=4)
[7] = Cycle 1 Day 15, 20 mg/m^2 (n=3)
[8] = Cycle 1 Day 15, 40 mg/m^2 (n=3)
[9] = Cycle 1 Day 15, 80 mg/m^2 (n=3)
[10] = Cycle 1 Day 15, 160 mg/m^2 (n=3)

**Q.** Which “Effect of BRAF mutation on PK properties” value [1] does the source give for `CCNc1cc(O)c2c(c1)/C=C/C[C@H](O)[C@H](O)C(=O)/C=C\[C@@H](C)[C@H](C)OC2=O` [E6201, (3S,4R,5Z,8S,9S,11E)-14-(ethylamino)-8,9,16-trihydroxy-3,4-dimethyl-3,4,9,19-tetrahydro-1H-2-benzoxacyclotetradecine-1,7 (8H)-dione] here?
**A.** no effect

**Q.** And the “Fraction of E6201 excreted in the urine” value ([2]; 24-hour collection interval)?
**A.** ≤ 0.21%

**Q.** And the “AUC(0-t), mean (%CV)” value ([2]; Cycle 1 Day 1, 20 mg/m^2 (n=4))?
**A.** 1650 (218) ng·h/mL

**Q.** What about the “CLR (renal clearance), mean (%CV)” value ([2]; Cycle 1 Day 1, 20 mg/m^2 (n=4)) of the same compound?
**A.** 10.0 (188) mL/h

**Q.** What about the “Cmax, mean (%CV)” value ([2]; Cycle 1 Day 1, 20 mg/m^2 (n=4)) of the same compound?
**A.** 552 (50) ng/mL

**Q.** And the “Tmax, median (range)” value ([2]; Cycle 1 Day 1, 20 mg/m^2 (n=4))?
**A.** 0.5 (0.25–0.5) h

**Q.** And the “fe (fraction of drug excreted in urine), mean (%CV)” value ([2]; Cycle 1 Day 1, 20 mg/m^2 (n=4))?
**A.** 0.0125 (42) %

**Q.** What about the “t½, mean” value ([2]; Cycle 1 Day 1, 20 mg/m^2, n=2) of the same compound?
**A.** 1.96^b (--) h

**Q.** And the “CL, mean (%CV)” value ([2]; Cycle 1 Day 1, 20 mg/m^2, n=2, %CV 2)?
**A.** 110^b (2) L/h

**Q.** What about the “Vss, mean (%CV)” value ([2]; Cycle 1 Day 1, 20 mg/m^2, n=2, %CV 28) of the same compound?
**A.** 135^b (28) L

**Q.** What about the “AUC(0-t), mean (%CV)” value ([2]; Cycle 1 Day 1, 40 mg/m^2 (n=3)) of the same compound?
**A.** 2410 (201) ng·h/mL

**Q.** What about the “CLR (renal clearance), mean (%CV)” value ([2]; Cycle 1 Day 1, 40 mg/m^2 (n=3)) of the same compound?
**A.** 1.65 (--) mL/h

**Q.** What about the “Cmax, mean (%CV)” value ([2]; Cycle 1 Day 1, 40 mg/m^2 (n=3)) of the same compound?
**A.** 870 (70) ng/mL

**Q.** And the “Tmax, median (range)” value ([2]; Cycle 1 Day 1, 40 mg/m^2 (n=3))?
**A.** 0.5 (0.5–0.5) h

**Q.** What about the “fe (fraction of drug excreted in urine), mean (%CV)” value ([2]; Cycle 1 Day 1, 40 mg/m^2 (n=3)) of the same compound?
**A.** 0 (--) %

**Q.** And the “t½, mean” value ([2]; Cycle 1 Day 1, 40 mg/m^2, n=2)?
**A.** 2.70^b (--) h

**Q.** And the “Vss, mean (%CV)” value ([2]; Cycle 1 Day 1, 40 mg/m^2, n=2, %CV 21)?
**A.** 164^b (21) L

**Q.** And the “CL, mean (%CV)” value ([2]; Cycle 1 Day 1, 40 mg/m^2, n=2, %CV 25)?
**A.** 103^b (25) L/h

**Q.** And the “AUC(0-t), mean (%CV)” value ([2]; Cycle 1 Day 1, 80 mg/m^2 (n=3))?
**A.** 2520 (63) ng·h/mL

**Q.** And the “CL, mean (%CV)” value ([2]; Cycle 1 Day 1, 80 mg/m^2 (n=3))?
**A.** 68.7 (60) L/h

**Q.** And the “CLR (renal clearance), mean (%CV)” value ([2]; Cycle 1 Day 1, 80 mg/m^2 (n=3))?
**A.** 28.9 (54) mL/h

**Q.** What about the “Cmax, mean (%CV)” value ([2]; Cycle 1 Day 1, 80 mg/m^2 (n=3)) of the same compound?
**A.** 3350 (149) ng/mL

**Q.** What about the “Tmax, median (range)” value ([2]; Cycle 1 Day 1, 80 mg/m^2 (n=3)) of the same compound?
**A.** 0.5 (0.25–0.5) h

**Q.** And the “Vss, mean (%CV)” value ([2]; Cycle 1 Day 1, 80 mg/m^2 (n=3))?
**A.** 135 (100) L

**Q.** What about the “fe (fraction of drug excreted in urine), mean (%CV)” value ([2]; Cycle 1 Day 1, 80 mg/m^2 (n=3)) of the same compound?
**A.** 0.04 (26) %

**Q.** What about the “t½, mean” value ([2]; Cycle 1 Day 1, 80 mg/m^2 (n=3)) of the same compound?
**A.** 2.79 (--) h

**Q.** And the “AUC(0-t), mean (%CV)” value [2, 3]?
**A.** 2770 (36) ng·h/mL

**Q.** What about the “CL, mean (%CV)” value [2, 3] of the same compound?
**A.** 119 (50) L/h

**Q.** And the “CLR (renal clearance), mean (%CV)” value [2, 3]?
**A.** 89.7 (299) mL/h

**Q.** What about the “Cmax, mean (%CV)” value [2, 3] of the same compound?
**A.** 2740 (51) ng/mL

**Q.** And the “Tmax, median (range)” value [2, 3]?
**A.** 0.5 (0.25–0.5) h

**Q.** What about the “Vss, mean (%CV)” value [2, 3] of the same compound?
**A.** 216 (55) L

**Q.** And the “fe (fraction of drug excreted in urine), mean (%CV)” value [2, 3]?
**A.** 0.0567 (186) %

**Q.** What about the “t½, mean” value [2, 3] of the same compound?
**A.** 3.98 (--) h

**Q.** And the “AUC(0-t), mean (%CV)” value [2, 4]?
**A.** 10400 (26) ng·h/mL

**Q.** What about the “CL, mean (%CV)” value [2, 4] of the same compound?
**A.** 57.2 (22) L/h

**Q.** What about the “CLR (renal clearance), mean (%CV)” value [2, 4] of the same compound?
**A.** 60.0 (659) mL/h

**Q.** What about the “Cmax, mean (%CV)” value [2, 4] of the same compound?
**A.** 14800 (73) ng/mL

**Q.** What about the “Tmax, median (range)” value [2, 4] of the same compound?
**A.** 0.25 (0.25–0.5) h

**Q.** And the “Vss, mean (%CV)” value [2, 4]?
**A.** 89.1 (36) L

**Q.** And the “fe (fraction of drug excreted in urine), mean (%CV)” value [2, 4]?
**A.** 0.109 (56) %

**Q.** And the “t½, mean” value [2, 4]?
**A.** 4.00 (--) h

**Q.** What about the “AUC(0-t), mean (%CV)” value [2, 5] of the same compound?
**A.** 13500 (--) ng·h/mL

**Q.** And the “CL, mean (%CV)” value [2, 5]?
**A.** 52.8 (--) L/h

**Q.** And the “CLR (renal clearance), mean (%CV)” value [2, 5]?
**A.** 111 (--) mL/h

**Q.** And the “Cmax, mean (%CV)” value [2, 5]?
**A.** 19500 (--) ng/mL

**Q.** What about the “Tmax, median (range)” value [2, 5] of the same compound?
**A.** 0.25 (0.25–0.25) h

**Q.** And the “Vss, mean (%CV)” value [2, 5]?
**A.** 80.1 (---) L

**Q.** And the “fe (fraction of drug excreted in urine), mean (%CV)” value [2, 5]?
**A.** 0.21 (--) %

**Q.** And the “t½, mean” value [2, 5]?
**A.** 6.50 (--) h

**Q.** And the “AUC(0-t), mean (%CV)” value [2, 6]?
**A.** 10200 (56) ng·h/mL

**Q.** What about the “CL, mean (%CV)” value [2, 6] of the same compound?
**A.** 101 (44) L/h

**Q.** And the “CLR (renal clearance), mean (%CV)” value [2, 6]?
**A.** 137 (128) mL/h

**Q.** And the “Cmax, mean (%CV)” value [2, 6]?
**A.** 8070 (55) ng/mL

**Q.** What about the “Tmax, median (range)” value [2, 6] of the same compound?
**A.** 0.375 (0.25–0.5) h

**Q.** What about the “Vss, mean (%CV)” value [2, 6] of the same compound?
**A.** 275 (42) L

**Q.** What about the “fe (fraction of drug excreted in urine), mean (%CV)” value [2, 6] of the same compound?
**A.** 0.143 (96) %

**Q.** What about the “t½, mean” value [2, 6] of the same compound?
**A.** 5.97 (--) h

**Q.** What about the “AUC(0-t), mean (%CV)” value [2, 7] of the same compound?
**A.** 1420 (250) ng·h/mL

**Q.** What about the “Cmax, mean (%CV)” value [2, 7] of the same compound?
**A.** 895 (228) ng/mL

**Q.** And the “Tmax, median (range)” value [2, 7]?
**A.** 0.5 (0.25–0.5) h

**Q.** What about the “CL, mean (%CV)” value ([2]; Cycle 1 Day 15, 20 mg/m^2, n=1) of the same compound?
**A.** 184^c (--) L/h

**Q.** What about the “Vss, mean (%CV)” value ([2]; Cycle 1 Day 15, 20 mg/m^2, n=1) of the same compound?
**A.** 324^ c (--) L

**Q.** What about the “t½, mean” value ([2]; Cycle 1 Day 15, 20 mg/m^2, n=1) of the same compound?
**A.** 1.58^c (--) h

**Q.** What about the “AUC(0-t), mean (%CV)” value [2, 8] of the same compound?
**A.** 2090 (169) ng·h/mL

**Q.** What about the “Cmax, mean (%CV)” value [2, 8] of the same compound?
**A.** 767 (78) ng/mL

**Q.** And the “Tmax, median (range)” value [2, 8]?
**A.** 0.5 (0.25–0.5) h

**Q.** And the “t½, mean” value ([2]; Cycle 1 Day 15, 40 mg/m^2, n=2)?
**A.** 1.88^ b (--) h

**Q.** And the “Vss, mean (%CV)” value ([2]; Cycle 1 Day 15, 40 mg/m^2, n=2, %CV 27)?
**A.** 115^b (27) L

**Q.** What about the “CL, mean (%CV)” value ([2]; Cycle 1 Day 15, 40 mg/m^2, n=2, %CV 47) of the same compound?
**A.** 91^b (47) L/h

**Q.** What about the “AUC(0-t), mean (%CV)” value [2, 9] of the same compound?
**A.** 2540 (66) ng·h/mL

**Q.** What about the “Cmax, mean (%CV)” value [2, 9] of the same compound?
**A.** 2590 (154) ng/mL

**Q.** And the “Tmax, median (range)” value [2, 9]?
**A.** 0.25 (0.25–0.5) h

**Q.** And the “t½, mean” value [2, 9]?
**A.** 5.55 (--) h

**Q.** What about the “CL, mean (%CV)” value ([2]; Cycle 1 Day 15, 80 mg/m^2, n=2, %CV 67) of the same compound?
**A.** 76.2^ b (67) L/h

**Q.** What about the “Vss, mean (%CV)” value ([2]; Cycle 1 Day 15, 80 mg/m^2, n=2, %CV 146) of the same compound?
**A.** 148^ b (146) L

**Q.** What about the “AUC(0-t), mean (%CV)” value [2, 10] of the same compound?
**A.** 4300 (32) ng·h/mL

**Q.** And the “CL, mean (%CV)” value [2, 10]?
**A.** 71.2 (18) L/h
